How the values were obtained:
Interstitial collagenase = target: T1, Interstitial collagenase (Homo sapiens, UniProt P03956)
T1 sequence (P03956 whole entry): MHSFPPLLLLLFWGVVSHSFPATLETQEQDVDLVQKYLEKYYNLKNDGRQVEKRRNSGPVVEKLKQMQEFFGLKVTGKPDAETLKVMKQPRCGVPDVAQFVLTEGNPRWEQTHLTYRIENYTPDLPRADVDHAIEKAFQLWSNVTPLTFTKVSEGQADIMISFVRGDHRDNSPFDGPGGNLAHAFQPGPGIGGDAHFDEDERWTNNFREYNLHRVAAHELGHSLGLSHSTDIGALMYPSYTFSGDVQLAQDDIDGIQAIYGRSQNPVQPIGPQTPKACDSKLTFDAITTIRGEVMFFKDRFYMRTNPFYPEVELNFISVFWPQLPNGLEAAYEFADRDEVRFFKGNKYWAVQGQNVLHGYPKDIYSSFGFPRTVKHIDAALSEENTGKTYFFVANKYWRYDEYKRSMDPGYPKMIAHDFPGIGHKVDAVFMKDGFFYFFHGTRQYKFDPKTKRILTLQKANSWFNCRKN

[1] = target: 72 kDa type IV collagenase (Homo sapiens, UniProt P08253)
Chain of 72 kDa type IV collagenase (P08253 whole entry): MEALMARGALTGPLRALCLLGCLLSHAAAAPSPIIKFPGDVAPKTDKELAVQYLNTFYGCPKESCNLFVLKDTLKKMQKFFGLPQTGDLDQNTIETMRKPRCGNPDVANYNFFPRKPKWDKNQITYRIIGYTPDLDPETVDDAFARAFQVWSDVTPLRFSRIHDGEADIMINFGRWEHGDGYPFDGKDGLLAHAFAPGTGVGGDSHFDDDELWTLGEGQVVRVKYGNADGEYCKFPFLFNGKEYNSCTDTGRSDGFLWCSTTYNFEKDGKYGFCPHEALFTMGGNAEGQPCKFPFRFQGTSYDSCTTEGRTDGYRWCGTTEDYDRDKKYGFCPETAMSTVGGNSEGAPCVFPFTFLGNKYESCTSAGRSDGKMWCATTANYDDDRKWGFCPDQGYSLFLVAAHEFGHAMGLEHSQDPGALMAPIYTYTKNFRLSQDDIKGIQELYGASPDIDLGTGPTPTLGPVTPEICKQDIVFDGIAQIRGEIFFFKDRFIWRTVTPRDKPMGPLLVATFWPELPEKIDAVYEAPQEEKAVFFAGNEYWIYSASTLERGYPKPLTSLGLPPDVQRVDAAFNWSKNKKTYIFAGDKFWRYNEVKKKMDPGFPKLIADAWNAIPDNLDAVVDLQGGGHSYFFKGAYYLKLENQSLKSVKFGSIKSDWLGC

| SMILES | Ki (Interstitial collagenase) [nM] | Ki [1] [nM] |
| --- | --- | --- |
| COc1cccc(CC[C@H](N[C@H](C)C(=O)O)C(=O)N[C@@H](CC(C)C)C(=O)Nc2ccccc2)c1 | > 10000 |  |
| Cc1cc(C)cc(CC[C@H](N[C@H](C)C(=O)O)C(=O)N[C@@H](CC(C)C)C(=O)Nc2ccccc2)c1 | > 10000 | 4840 |
| COc1ccccc1CC[C@H](N[C@H](C)C(=O)O)C(=O)N[C@@H](CC(C)C)C(=O)Nc1ccccc1 | > 10000 |  |
| CC(C)Cc1cccc(CC[C@H](N[C@H](C)C(=O)O)C(=O)N[C@@H](CC(C)C)C(=O)Nc2ccccc2)c1 | > 10000 | 6100 |
| CC(C)C[C@H](NC(=O)[C@H](CCc1ccc(O)cc1)N[C@H](C)C(=O)O)C(=O)Nc1ccccc1 | 1000 |  |
| Cc1ccc(CC[C@H](N[C@H](C)C(=O)O)C(=O)N[C@@H](CC(C)C)C(=O)Nc2ccccc2)cc1C | 7700 | 25 |
| COc1ccc(CC[C@H](N[C@H](C)C(=O)O)C(=O)N[C@@H](CC(C)C)C(=O)Nc2ccccc2)cc1OC | > 10000 | > 10000 |
| CC(C)C[C@H](NC(=O)[C@H](CCc1ccc(C(F)(F)F)cc1)N[C@H](C)C(=O)O)C(=O)Nc1ccccc1 | 5100 | 110 |
| Cc1ccc(CC[C@H](N[C@H](C)C(=O)O)C(=O)N[C@@H](CC(C)C)C(=O)Nc2ccccc2)cc1 | 1900 |  |
| CC(C)C[C@H](NC(=O)[C@H](CCc1cccc(O)c1)N[C@H](C)C(=O)O)C(=O)Nc1ccccc1 | 510 |  |
| CC(C)C[C@H](NC(=O)[C@H](CCc1ccc(C(C)C)cc1)N[C@H](C)C(=O)O)C(=O)Nc1ccccc1 | > 10000 | 130 |
| C[C@@H](N[C@@H](CCc1ccccc1)C(=O)N[C@@H](CCCNC(=N)N)C(=O)Nc1ccccc1)C(=O)O | 470 | 210 |
| CC(C)C[C@H](NC(=O)[C@H](CCc1ccc(Cl)cc1)N[C@H](C)C(=O)O)C(=O)Nc1ccccc1 | 2100 | 77 |
| CCc1ccc(CC[C@H](N[C@H](C)C(=O)O)C(=O)N[C@@H](CC(C)C)C(=O)Nc2ccccc2)cc1 | 2300 | 12 |
| CCOc1ccc(CC[C@H](N[C@H](C)C(=O)O)C(=O)N[C@@H](CCCNC(=N)N)C(=O)Nc2ccccc2)cc1 | 2300 | 6.1 |
| Cc1ccccc1CC[C@H](N[C@H](C)C(=O)O)C(=O)N[C@@H](CC(C)C)C(=O)Nc1ccccc1 | > 10000 |  |
| CC(C)C[C@H](NC(=O)[C@H](CCc1cccc(Cl)c1)N[C@H](C)C(=O)O)C(=O)Nc1ccccc1 | 3300 |  |
| CC(C)C[C@H](NC(=O)[C@H](CCc1ccc(F)cc1)N[C@H](C)C(=O)O)C(=O)Nc1ccccc1 | 870 | 220 |
| Cc1cccc(CC[C@H](N[C@H](C)C(=O)O)C(=O)N[C@@H](CC(C)C)C(=O)Nc2ccccc2)c1 | 1500 |  |
| CCCCc1ccc(CC[C@H](N[C@H](C)C(=O)O)C(=O)N[C@@H](CCCNC(=N)N)C(=O)Nc2ccccc2)cc1 | > 10000 | 2.1 |
| CC(C)Cc1ccc(CC[C@H](N[C@H](C)C(=O)O)C(=O)N[C@@H](CC(C)C)C(=O)Nc2ccccc2)cc1 | > 10000 | 11 |
| CC(C)C[C@H](NC(=O)[C@H](CCc1ccccc1O)N[C@H](C)C(=O)O)C(=O)Nc1ccccc1 | 2700 |  |
| CCCc1ccc(CC[C@H](N[C@H](C)C(=O)O)C(=O)N[C@@H](CCCN=C(N)N)C(=O)Nc2ccccc2)cc1 | 2900 | 3 |
| CCCc1ccc(CC[C@H](N[C@H](C)C(=O)O)C(=O)N[C@@H](CC(C)C)C(=O)Nc2ccccc2)cc1 | 5900 | 3.5 |
